Values of other authors as cited in patent US6413950B1, “Pharmaceutical preparation containing dithranol” (esparma GmbH, priority 1999, dated 2002).

Settings: background statement on the active agent dithranol

- solubility in water: not soluble in water
SMILES: O=C1c2c(O)cccc2Cc2cccc(O)c21 [Dithranol]
